Measured values as given in the supplement of paper PMC13380429.

Key:
Conditions in all cases: 72 h
[1] = tested on: Caco-2; test: cell viability relative to DMSO; higher = less toxic
[2] = tested on: Calu-3; test: as above
[3] = tested on: HepG2; test: as above
[4] = tested on: U2OS; test: as above
[5] = tested on: Vero E6; test: as above
[6] = tested on: Calu-3; test: relative viability EC50 (midpoint between 100% and the lowest measured viability); higher = less toxic
[7] = tested on: HepG2; test: as above
[8] = tested on: Caco-2; test: drug sensitivity score (DSS) for viability; higher = more toxic; extreme values may be limits of the assay
[9] = tested on: Calu-3; test: as above
[10] = tested on: HepG2; test: as above
[11] = tested on: U2OS; test: as above
[12] = tested on: Vero E6; test: as above
[13] = tested on: Caco-2; test: relative viability EC50 (midpoint between 100% and the lowest measured viability); higher = less toxic
[14] = tested on: U2OS; test: as above
[15] = tested on: Vero E6; test: as above

Structure (SMILES)	cell viability ([1]; 1 nM) [%]	cell viability ([1]; 10 nM) [%]	cell viability ([1]; 100 nM) [%]	cell viability ([1]; 1000 nM) [%]	cell viability ([1]; 10000 nM) [%]	cell viability ([2]; 1 nM) [%]	cell viability ([2]; 10 nM) [%]	cell viability ([2]; 100 nM) [%]	cell viability ([2]; 1000 nM) [%]	cell viability ([2]; 10000 nM) [%]	cell viability ([3]; 1 nM) [%]	cell viability ([3]; 10 nM) [%]	cell viability ([3]; 100 nM) [%]	cell viability ([3]; 1000 nM) [%]	cell viability ([3]; 10000 nM) [%]	cell viability ([4]; 1 nM) [%]	cell viability ([4]; 10 nM) [%]	cell viability ([4]; 100 nM) [%]	cell viability ([4]; 1000 nM) [%]	cell viability ([4]; 10000 nM) [%]	cell viability ([5]; 1 nM) [%]	cell viability ([5]; 10 nM) [%]	cell viability ([5]; 100 nM) [%]	cell viability ([5]; 1000 nM) [%]	cell viability ([5]; 10000 nM) [%]	relative viability EC50 [6] [µM]	relative viability EC50 [7] [µM]	drug sensitivity score [8]	drug sensitivity score [9]	drug sensitivity score [10]	drug sensitivity score [11]	drug sensitivity score [12]	relative viability EC50 [13] [µM]	relative viability EC50 [14] [µM]	relative viability EC50 [15] [µM]
CS(=O)(=O)CCNCc1ccc(-c2ccc3ncnc(Nc4ccc(OCc5cccc(F)c5)c(Cl)c4)c3c2)o1 [lapatinib]	100	93.7	90.1	77.3	62.8	102	89.6	74.2	35.8	24.5	98	107	104	112	89.1	98.4	93.6	94	92.3	74.9	96.9	100	92.4	74.6	51.5	0.176	> 10	4.8	15.1	0	1.4	5.5	–	–	–
Cc1ccc(C(=O)Nc2ccc(Oc3cc4cnn(C)c4cc3-c3cn[nH]c3)c(F)c2)c(=O)n1-c1ccc(F)cc1	98	94.9	102	99.3	53.8	92	91.9	101	70.7	65.3	102	110	97.4	75.5	15.6	101	95.5	98.8	96.9	69.9	103	99.6	96.7	92.1	68.1	–	1.43	2.5	5.1	8.3	1.8	2.6	–	–	–
CC(C)c1nc(N(C)S(C)(=O)=O)nc(-c2ccc(F)cc2)c1/C=C/[C@@H](O)C[C@@H](O)CC(=O)O [rosuvastatin]	103	105	100	101	83.7	98.5	91.3	101	105	103	109	110	98.4	106	96.1	101	96.7	102	99.5	98	101	97.9	99.6	100	72.7	> 10	> 10	0.3	0	0	0	1.1	> 10	> 10	–
Cc1ccc(C(=O)Nc2ccc(S(=O)(=O)O)c3cc(S(=O)(=O)O)cc(S(=O)(=O)O)c23)cc1NC(=O)c1cccc(NC(=O)Nc2cccc(C(=O)Nc3cc(C(=O)Nc4ccc(S(=O)(=O)O)c5cc(S(=O)(=O)O)cc(S(=O)(=O)O)c45)ccc3C)c2)c1 [suramin]	93.5	94.5	99	90.9	97.5	96.3	101	94.8	103	111	97.4	109	102	103	91.8	99.9	94.7	99.4	96.7	100	–	–	–	–	–	> 10	> 10	0	0	0	0	–	> 10	> 10	–
NS(=O)(=O)c1cc(-c2nnn[nH]2)c(NCc2cccs2)cc1Cl [azosemide]	99.4	111	86.5	92.4	92.1	–	–	–	–	–	94.5	103	103	95.7	89.6	–	–	–	–	–	103	108	104	106	97.1	–	> 10	1.6	–	0	–	0	> 10	–	> 10
CC(=O)O[C@]1(C(C)=O)CC[C@H]2[C@@H]3CCC4=CC(=O)CC[C@]4(C)[C@H]3CC[C@@]21C [hydroxyprogesterone-acetate]	95.8	98.6	90.2	104	98.9	103	115	91.3	95.7	93.8	98.7	95.5	110	90.3	102	99.2	101	106	99.9	98.7	–	–	–	–	–	> 10	> 10	0	0	0	0	–	> 10	> 10	–
O=C(O)CCCCN(CCc1ccccc1OCc1ccc(CCc2ccccc2)cc1)Cc1ccc(C(=O)O)cc1 [cinaciguat]	110	110	104	86	104	–	–	–	–	–	106	110	98.9	109	105	–	–	–	–	–	–	–	–	–	–	–	> 10	0	–	0	–	–	> 10	–	–
N=C(N)c1ccc(/C=C/c2ccc(C(=N)N)cc2O)cc1 [hydroxystilbamidine]	97.7	99.2	103	104	93.7	110	107	101	102	97.3	108	96.6	93.1	95.5	56.2	98	95.6	96.2	98.6	106	96.7	100	101	97.5	89.4	> 10	–	0	0	3	0	0	> 10	> 10	> 10
C#Cc1cccc(Nc2ncnc3cc4c(cc23)OCCOCCOCCO4)c1 [icotinib]	104	100	98.5	87.4	90.7	93.8	104	90.2	66.1	50.8	86.4	103	87.7	102	99.4	96.4	95.6	98.1	93.7	96.6	91.5	100	92	81.8	66.9	–	> 10	0.8	7.2	0	0	3.5	> 10	> 10	–
NC(=S)N/N=C/c1ncccc1N [triapine]	97.2	98.7	95.3	92.1	68.6	106	94.1	101	101	70.5	103	97.7	119	93	30.6	96.8	99.6	95.8	102	72.8	97	98.3	98.1	92.3	50.3	–	2.34	2.4	1.2	5	1	3.9	–	–	–
CCCCCCCCCCCCCCCC(=O)OC[C@H](O)[C@H]1OC(=O)C(O)=C1O [L-ascorbyl-6-palmitate]	95.2	100	96.1	99.7	95	98.9	104	94.5	108	113	101	93.2	92.6	94.4	97.7	100	103	97.5	102	97.9	–	–	–	–	–	> 10	> 10	0	0	0	0	–	> 10	> 10	–
COc1cc2ncnc(Nc3ccc(Oc4ccccc4)cc3)c2cc1OC [SRC-kinase-inhibitor-I]	96.8	106	98	94.7	71.1	88.9	102	94	89.9	33.4	104	112	104	103	86.8	99.7	105	99.6	103	80.8	103	97.2	109	93.5	66.7	1.98	> 10	2.1	5.4	0.1	0.4	2.6	–	> 10	–
C[C@@]12CCc3occc3[C@H]1CC[C@@]13C[C@@H](CC[C@H]12)[C@@](O)(CO)C3 [cafestol]	119	100	104	103	79.6	104	104	107	112	98.2	83.8	96.4	78.4	104	69.3	101	103	94.2	98.2	94.4	98.7	97.7	102	98	104	> 10	–	0.5	0	1.1	0	0	> 10	> 10	> 10
O=C(c1ccc(OCCCc2c[nH]cn2)cc1)C1CC1 [ciproxifan]	101	97.1	91.8	94.2	88.4	93.4	101	99.9	88.2	93.1	106	107	99.8	74.3	88.6	96.1	105	96.8	95.8	97.5	101	102	101	101	94.2	> 10	–	0	0.5	4.1	0	0	> 10	> 10	> 10
Cn1cncc1[C@@](N)(c1ccc(Cl)cc1)c1ccc2c(c1)c(-c1cccc(Cl)c1)cc(=O)n2C [tipifarnib]	86.5	90.7	80.3	73.1	59.9	88.7	92.1	81.6	63.2	54.5	98.4	95.2	74.3	63.5	23.3	95.3	96.7	88.9	70.9	53.9	103	94.2	95.1	82.7	76.9	–	0.532	7.8	8.9	10.6	6.4	2.5	–	–	> 10
